Test results as given in ChEMBL document CHEMBL4321812, “Structure-based rational design of staurosporine-based fluorescent probe with broad-ranging kinase affinity for kinase panel application” (Bioorg Med Chem Lett, 2019).

Experiments:
[1] = biological target: Serine/threonine-protein kinase 32A (Homo sapiens, UniProt Q8WU08); test: Binding affinity to recombinant full-length N-terminal His-FLAG-tagged STK32A (unknown origin) expressed in baculovirus infected Sf9 insect cells incubated for 1 hr by TR-FRET assay
[2] = biological target: Macrophage colony-stimulating factor 1 receptor (Homo sapiens, UniProt P07333); test: Binding affinity to recombinant N-terminal His-FLAG-GST-tagged CSF1R (unknown origin) (538 to 972 residues) expressed in baculovirus infected Sf9 insect cells incubated for 1 hr by TR-FRET assay
[3] = biological target: Tyrosine-protein kinase ABL2 (Homo sapiens, UniProt P42684); test: Binding affinity to recombinant full-length N-terminal His-FLAG-GST-tagged ABL2 (unknown origin) (2 to 52 and 74 to 1182 residues) expressed in baculovirus infected Sf9 insect cells incubated for 1 hr by TR-FRET assay
[4] = biological target: Serine/threonine-protein kinase ULK1 (Homo sapiens, UniProt O75385); test: Binding affinity to recombinant N-terminal His-FLAG-GST-tagged ULK1 (unknown origin) (1 to 649 residues) expressed in baculovirus infected Sf9 insect cells incubated for 1 hr by TR-FRET assay
[5] = biological target: Protein kinase C epsilon type (Homo sapiens, UniProt Q02156); test: Binding affinity to recombinant human full length N-terminal GST-tagged PRKCE expressed in baculovirus expression system using PKC peptide as substrate incubated for 1 hr by TR-FRET assay
[6] = biological target: Serine/threonine-protein kinase 38-like (Homo sapiens, UniProt Q9Y2H1); test: Binding affinity to recombinant full-length N-terminal His-FLAG-GST-tagged STK38L (unknown origin) expressed in baculovirus infected Sf9 insect cells incubated for 1 hr by TR-FRET assay
[7] = biological target: Tyrosine-protein kinase receptor TYRO3 (Homo sapiens, UniProt Q06418); test: Binding affinity to recombinant full-length N-terminal His-FLAG-GST-tagged TYRO3 (unknown origin) expressed in baculovirus infected Sf9 insect cells incubated for 1 hr by TR-FRET assay
[8] = biological target: cAMP-dependent protein kinase catalytic subunit gamma (Homo sapiens, UniProt P22612); test: Binding affinity to recombinant full-length N-terminal His-FLAG-GST-tagged PRKACG (unknown origin) expressed in baculovirus infected Sf9 insect cells incubated for 1 hr by TR-FRET assay
Ephrin type-A receptor 1 = Ephrin type-A receptor 1 (Homo sapiens, UniProt P21709); test: Binding affinity to recombinant full-length N-terminal His-FLAG-GST-tagged EPHA1 (unknown origin) (586 to 976 residues) expressed in baculovirus infected Sf9 insect cells incubated for 1 hr by TR-FRET assay
[9] = biological target: Interleukin-1 receptor-associated kinase 4 (Homo sapiens, UniProt Q9NWZ3); test: Binding affinity to recombinant full-length human N-terminal his-tagged IRAK4 expressed in baculovirus expression system using IRAK1 peptide as substrate incubated for 1 hr by TR-FRET assay
TGF-beta receptor type-2 = TGF-beta receptor type-2 (Homo sapiens, UniProt P37173); test: Binding affinity to recombinant N-terminal His-FLAG-GST-tagged TGFBR2 (unknown origin) (194 to 567 residues) expressed in baculovirus infected Sf9 insect cells incubated for 1 hr by TR-FRET assay
[10] = biological target: Serine/threonine-protein kinase MRCK alpha (Homo sapiens, UniProt Q5VT25); test: Binding affinity to recombinant full-length N-terminal His-FLAG-GST-tagged CDC42BPA (unknown origin) (1 to 574 residues) expressed in baculovirus infected Sf9 insect cells incubated for 1 hr by TR-FRET assay
[11] = biological target: Serine/threonine-protein kinase MARK1 (Homo sapiens, UniProt Q9P0L2); test: Binding affinity to recombinant full-length N-terminal His-FLAG-tagged MARK1 (unknown origin) expressed in baculovirus infected Sf9 insect cells incubated for 1 hr by TR-FRET assay
[12] = biological target: Vascular endothelial growth factor receptor 3 (Homo sapiens, UniProt P35916); test: Binding affinity to recombinant N-terminal His-FLAG-GST-tagged FLT4 (unknown origin) (798 to 1298 residues) expressed in baculovirus infected Sf9 insect cells incubated for 1 hr by TR-FRET assay
[13] = biological target: Mitogen-activated protein kinase kinase kinase kinase 5 (Homo sapiens, UniProt Q9Y4K4); test: Binding affinity to recombinant full-length N-terminal His-FLAG-GST-tagged MAP4K5 (unknown origin) expressed in baculovirus infected Sf9 insect cells incubated for 1 hr by TR-FRET assay
[14] = biological target: STE20-like serine/threonine-protein kinase (Homo sapiens, UniProt Q9H2G2); test: Binding affinity to recombinant N-terminal His-FLAG-GST-tagged SLK (unknown origin) (1 to 1152 residues) expressed in baculovirus infected Sf9 insect cells incubated for 1 hr by TR-FRET assay
[15] = biological target: Ribosomal protein S6 kinase alpha-2 (Homo sapiens, UniProt Q15349); test: Binding affinity to recombinant human full length N-terminal GST-tagged RPS6KA2 expressed in baculovirus expression system using S6K peptide as substrate incubated for 1 hr by TR-FRET assay
[16] = biological target: Tyrosine-protein kinase BTK (Homo sapiens, UniProt Q06187); test: Binding affinity to recombinant human full-length N-terminal GST-tagged BTK expressed in baculovirus expression system using srctide as substrate incubated for 1 hr by TR-FRET assay
[17] = biological target: Myosin light chain kinase, smooth muscle (Homo sapiens, UniProt Q15746); test: Binding affinity to recombinant full-length N-terminal His-FLAG-GST-tagged MYLK (unknown origin) (1428 to 1771 residues) expressed in baculovirus infected Sf9 insect cells incubated for 1 hr by TR-FRET assay
[18] = biological target: Serine/threonine-protein kinase 17A (Homo sapiens, UniProt Q9UEE5); test: Binding affinity to recombinant full length N-terminal His-FLAG-GST-tagged STK17A (unknown origin) expressed in baculovirus infected Sf9 insect cells incubated for 1 hr by TR-FRET assay
[19] = biological target: Tyrosine-protein kinase JAK3 (Homo sapiens, UniProt P52333); test: Binding affinity to recombinant full-length N-terminal His-FLAG-GST-tagged JAK3 (unknown origin) (795 to 1124 residues) expressed in baculovirus infected Sf9 insect cells incubated for 1 hr by TR-FRET assay
[20] = biological target: Dual specificity protein kinase CLK4 (Homo sapiens, UniProt Q9HAZ1); test: Binding affinity to recombinant human full length N-terminal GST-tagged CLK4 expressed in baculovirus expression system incubated for 1 hr by TR-FRET assay
[21] = biological target: TRAF2 and NCK-interacting protein kinase (Homo sapiens, UniProt Q9UKE5); test: Binding affinity to recombinant full-length N-terminal His-FLAG-GST-tagged TNIK (unknown origin) (1 to 314 residues) expressed in baculovirus infected Sf9 insect cells incubated for 1 hr by TR-FRET assay
[22] = biological target: Tyrosine-protein kinase Lyn (Homo sapiens, UniProt P07948); test: Binding affinity to recombinant full-length N-terminal His-FLAG-GST-tagged LYN (unknown origin) expressed in baculovirus infected Sf9 insect cells incubated for 1 hr by TR-FRET assay

Chain of cAMP-dependent protein kinase catalytic subunit gamma (P22612 whole entry, the tested form may be a part): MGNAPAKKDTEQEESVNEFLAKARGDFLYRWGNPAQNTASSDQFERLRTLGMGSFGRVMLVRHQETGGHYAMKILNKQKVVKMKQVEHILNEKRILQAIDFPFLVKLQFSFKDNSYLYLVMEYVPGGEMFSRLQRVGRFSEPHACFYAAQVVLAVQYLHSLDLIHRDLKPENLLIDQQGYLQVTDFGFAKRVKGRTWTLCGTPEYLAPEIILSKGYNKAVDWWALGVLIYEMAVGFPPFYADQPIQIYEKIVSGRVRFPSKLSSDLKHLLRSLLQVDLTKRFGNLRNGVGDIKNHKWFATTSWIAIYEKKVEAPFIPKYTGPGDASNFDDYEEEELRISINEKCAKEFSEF
Chain of Serine/threonine-protein kinase 17A (Q9UEE5 whole entry, the tested form may be a part): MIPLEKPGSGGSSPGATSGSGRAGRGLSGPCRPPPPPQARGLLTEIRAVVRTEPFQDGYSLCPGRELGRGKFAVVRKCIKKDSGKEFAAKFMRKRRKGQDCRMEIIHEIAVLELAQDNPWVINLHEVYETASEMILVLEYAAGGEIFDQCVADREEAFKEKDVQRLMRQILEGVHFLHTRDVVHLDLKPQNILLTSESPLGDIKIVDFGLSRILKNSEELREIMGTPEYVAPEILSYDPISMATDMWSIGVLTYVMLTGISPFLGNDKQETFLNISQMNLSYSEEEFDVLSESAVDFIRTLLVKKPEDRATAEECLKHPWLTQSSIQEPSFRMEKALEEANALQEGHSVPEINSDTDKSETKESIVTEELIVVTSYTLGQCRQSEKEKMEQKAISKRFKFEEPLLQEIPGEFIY
Chain of TGF-beta receptor type-2 (P37173 whole entry, the tested form may be a part): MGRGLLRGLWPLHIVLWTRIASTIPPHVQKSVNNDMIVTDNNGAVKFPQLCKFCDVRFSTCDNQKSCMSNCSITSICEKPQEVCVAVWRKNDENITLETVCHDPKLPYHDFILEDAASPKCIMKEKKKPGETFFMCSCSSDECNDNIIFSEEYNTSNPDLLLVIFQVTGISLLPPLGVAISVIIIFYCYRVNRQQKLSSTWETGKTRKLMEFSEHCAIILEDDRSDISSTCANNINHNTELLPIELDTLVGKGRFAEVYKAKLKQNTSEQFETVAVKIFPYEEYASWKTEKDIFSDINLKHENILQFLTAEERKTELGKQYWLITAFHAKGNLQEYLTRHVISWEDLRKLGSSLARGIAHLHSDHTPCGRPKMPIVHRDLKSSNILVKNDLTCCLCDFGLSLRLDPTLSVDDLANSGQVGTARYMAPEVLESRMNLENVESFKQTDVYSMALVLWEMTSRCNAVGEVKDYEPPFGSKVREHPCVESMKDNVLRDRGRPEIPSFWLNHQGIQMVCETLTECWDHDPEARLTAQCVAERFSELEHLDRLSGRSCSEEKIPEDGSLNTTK
Chain of Mitogen-activated protein kinase kinase kinase kinase 5 (Q9Y4K4 whole entry, the tested form may be a part): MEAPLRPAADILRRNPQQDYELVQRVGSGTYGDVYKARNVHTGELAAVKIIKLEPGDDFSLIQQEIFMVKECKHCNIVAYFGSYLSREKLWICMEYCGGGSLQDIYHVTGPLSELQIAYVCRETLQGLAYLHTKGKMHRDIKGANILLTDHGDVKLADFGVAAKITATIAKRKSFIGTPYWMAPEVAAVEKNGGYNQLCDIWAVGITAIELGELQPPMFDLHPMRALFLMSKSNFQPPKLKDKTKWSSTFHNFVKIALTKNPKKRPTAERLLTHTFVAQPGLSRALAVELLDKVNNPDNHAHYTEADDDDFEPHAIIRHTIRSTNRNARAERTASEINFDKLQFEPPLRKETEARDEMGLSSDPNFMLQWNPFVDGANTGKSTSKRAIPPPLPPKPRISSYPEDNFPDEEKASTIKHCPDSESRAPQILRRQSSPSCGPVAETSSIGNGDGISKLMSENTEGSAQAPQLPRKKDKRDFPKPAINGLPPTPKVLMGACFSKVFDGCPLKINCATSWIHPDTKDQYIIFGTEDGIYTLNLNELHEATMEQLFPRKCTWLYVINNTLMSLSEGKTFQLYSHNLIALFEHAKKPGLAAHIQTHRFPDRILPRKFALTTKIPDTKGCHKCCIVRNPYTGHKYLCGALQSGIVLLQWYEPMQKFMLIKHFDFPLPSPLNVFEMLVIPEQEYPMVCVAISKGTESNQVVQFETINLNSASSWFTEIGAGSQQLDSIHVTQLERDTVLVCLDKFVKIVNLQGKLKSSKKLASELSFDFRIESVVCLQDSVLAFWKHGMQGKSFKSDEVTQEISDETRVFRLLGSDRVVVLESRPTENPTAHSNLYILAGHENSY
Chain of Serine/threonine-protein kinase MARK1 (Q9P0L2 whole entry, the tested form may be a part): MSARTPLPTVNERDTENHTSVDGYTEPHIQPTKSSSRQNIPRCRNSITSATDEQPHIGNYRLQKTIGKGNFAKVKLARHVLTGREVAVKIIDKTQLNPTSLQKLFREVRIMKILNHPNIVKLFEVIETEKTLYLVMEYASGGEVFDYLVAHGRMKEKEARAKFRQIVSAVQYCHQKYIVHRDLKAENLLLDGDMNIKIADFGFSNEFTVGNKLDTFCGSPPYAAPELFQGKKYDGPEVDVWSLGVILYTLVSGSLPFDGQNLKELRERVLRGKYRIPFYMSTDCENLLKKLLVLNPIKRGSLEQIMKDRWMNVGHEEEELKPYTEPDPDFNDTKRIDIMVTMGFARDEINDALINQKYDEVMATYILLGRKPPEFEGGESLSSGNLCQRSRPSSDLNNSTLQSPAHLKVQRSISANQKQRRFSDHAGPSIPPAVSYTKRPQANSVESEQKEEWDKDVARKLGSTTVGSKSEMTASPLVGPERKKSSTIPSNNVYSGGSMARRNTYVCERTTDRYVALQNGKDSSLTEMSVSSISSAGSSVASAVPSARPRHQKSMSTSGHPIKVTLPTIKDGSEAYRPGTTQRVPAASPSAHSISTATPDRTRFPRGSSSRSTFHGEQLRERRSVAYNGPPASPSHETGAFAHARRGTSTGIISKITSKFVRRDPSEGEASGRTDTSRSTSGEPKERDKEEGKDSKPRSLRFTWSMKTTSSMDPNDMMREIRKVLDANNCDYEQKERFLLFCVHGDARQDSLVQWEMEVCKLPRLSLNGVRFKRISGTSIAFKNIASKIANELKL
Chain of Tyrosine-protein kinase BTK (Q06187 whole entry, the tested form may be a part): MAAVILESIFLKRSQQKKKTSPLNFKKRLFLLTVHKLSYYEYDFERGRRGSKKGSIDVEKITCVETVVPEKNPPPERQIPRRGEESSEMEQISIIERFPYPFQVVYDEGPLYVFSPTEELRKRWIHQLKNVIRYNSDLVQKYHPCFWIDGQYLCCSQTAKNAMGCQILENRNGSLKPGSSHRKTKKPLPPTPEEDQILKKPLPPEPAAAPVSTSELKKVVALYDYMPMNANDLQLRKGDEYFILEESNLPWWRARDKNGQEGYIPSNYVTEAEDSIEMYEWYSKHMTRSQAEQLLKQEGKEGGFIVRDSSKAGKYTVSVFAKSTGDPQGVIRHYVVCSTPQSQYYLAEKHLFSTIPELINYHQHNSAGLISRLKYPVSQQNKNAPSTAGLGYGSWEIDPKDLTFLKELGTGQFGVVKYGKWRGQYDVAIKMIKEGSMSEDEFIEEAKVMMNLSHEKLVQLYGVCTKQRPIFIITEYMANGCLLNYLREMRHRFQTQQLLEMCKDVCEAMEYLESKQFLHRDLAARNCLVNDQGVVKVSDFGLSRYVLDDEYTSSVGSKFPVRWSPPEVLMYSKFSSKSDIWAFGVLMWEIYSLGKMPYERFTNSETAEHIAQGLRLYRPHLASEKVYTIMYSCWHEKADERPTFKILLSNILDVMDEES
Chain of Tyrosine-protein kinase ABL2 (P42684 whole entry, the tested form may be a part): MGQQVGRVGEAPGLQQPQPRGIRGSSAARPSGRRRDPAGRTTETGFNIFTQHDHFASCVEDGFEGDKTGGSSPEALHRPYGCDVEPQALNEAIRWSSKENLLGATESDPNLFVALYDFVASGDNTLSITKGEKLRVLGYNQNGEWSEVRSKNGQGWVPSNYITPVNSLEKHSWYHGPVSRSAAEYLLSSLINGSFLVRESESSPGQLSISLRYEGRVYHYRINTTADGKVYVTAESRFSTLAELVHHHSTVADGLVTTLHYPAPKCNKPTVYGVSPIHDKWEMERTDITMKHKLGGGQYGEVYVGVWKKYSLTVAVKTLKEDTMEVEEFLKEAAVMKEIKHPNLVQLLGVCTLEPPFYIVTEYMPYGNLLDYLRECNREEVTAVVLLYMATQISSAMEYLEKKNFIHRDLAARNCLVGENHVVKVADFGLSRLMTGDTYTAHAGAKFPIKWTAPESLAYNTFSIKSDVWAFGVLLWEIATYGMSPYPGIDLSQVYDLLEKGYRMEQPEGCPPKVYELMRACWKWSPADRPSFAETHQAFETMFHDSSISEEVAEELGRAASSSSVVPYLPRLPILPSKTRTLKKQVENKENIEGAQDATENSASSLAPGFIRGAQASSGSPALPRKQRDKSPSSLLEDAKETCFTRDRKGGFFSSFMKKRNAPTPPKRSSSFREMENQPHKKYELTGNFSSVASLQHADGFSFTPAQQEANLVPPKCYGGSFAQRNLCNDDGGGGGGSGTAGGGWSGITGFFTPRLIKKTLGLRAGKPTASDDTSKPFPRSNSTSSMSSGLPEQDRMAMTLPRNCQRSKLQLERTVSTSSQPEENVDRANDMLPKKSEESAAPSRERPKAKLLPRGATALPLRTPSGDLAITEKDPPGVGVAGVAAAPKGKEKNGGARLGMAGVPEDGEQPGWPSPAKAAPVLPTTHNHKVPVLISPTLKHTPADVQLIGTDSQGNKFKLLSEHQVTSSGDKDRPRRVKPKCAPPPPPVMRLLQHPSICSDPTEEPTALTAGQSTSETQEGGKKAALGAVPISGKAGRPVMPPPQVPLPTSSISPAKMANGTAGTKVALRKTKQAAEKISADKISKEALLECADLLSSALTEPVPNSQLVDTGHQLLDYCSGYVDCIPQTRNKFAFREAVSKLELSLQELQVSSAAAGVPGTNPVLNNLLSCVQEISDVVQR

| Compound | Kd [1] [nM] | Kd [2] [nM] | Kd [3] [nM] | Kd [4] [nM] | Kd [5] [nM] | Kd [6] [nM] | Kd [7] [nM] | Kd [8] [nM] | Kd (Ephrin type-A receptor 1) [nM] | Kd [9] [nM] | Kd (TGF-beta receptor type-2) [nM] | Kd [10] [nM] | Kd [11] [nM] | Kd [12] [nM] | Kd [13] [nM] | Kd [14] [nM] | Kd [15] [nM] | Kd [16] [nM] | Kd [17] [nM] | Kd [18] [nM] | further results |
| --- | --- | --- | --- | --- | --- | --- | --- | --- | --- | --- | --- | --- | --- | --- | --- | --- | --- | --- | --- | --- | --- |
| CO[C@@H]1[C@H](N(C)CCOCCOCCOCCNC(=O)CCC2=[N+]3C(=Cc4c(C)cc(C)n4[B-]3(F)F)C=C2)C[C@H]2O[C@]1(C)n1c3ccccc3c3c4c(c5c6ccccc6n2c5c31)C(=O)NC4 | 1750 | 324 | 947 | 311 | 15 | > 2000 | 1050 | 154 | 588 | 75 | > 2000 | 25 | 3 | 78 | 377 | 6 | 4 | 437 | 298 | 367 | Kd [19]: 13 nM; Kd [20]: 81 nM; Kd [21]: 97 nM; Kd [22]: 116 nM |
| CO[C@@H]1[C@H](NCCOCCOCCOCCNC(=O)CCC2=[N+]3C(=Cc4c(C)cc(C)n4[B-]3(F)F)C=C2)C[C@H]2O[C@]1(C)n1c3ccccc3c3c4c(c5c6ccccc6n2c5c31)C(=O)NC4 | 1540 | 279 | 531 | 135 | 41 | 759 | 531 | 148 | 586 | 23 | 854 | 43 | 9 | 61 | 87 | 5 | 8 | 374 | 369 | 258 | Kd [19]: 14 nM; Kd [20]: 90 nM; Kd [21]: 121 nM; Kd [22]: 63 nM |
